The subject of one series is Candida albicans. Description: Minimum inhibitory concentration, agar dilution method, Candida albicans. The format is cell-based. The note with it: Sabouraud's dextrose medium; for MIC: Candida albicans. On the procedure:
(§1) The minimum inhibitory concentrations (μg/ml), relative to test fungi, of some of the typical compounds in this invention produced in Examples to be described later were measured, and the results are tabulated below.
(§2) *The minimum inhibitory concentrations were measured by an agar dilution
(§3) method using a Sabouraud's dextrose medium in accordance with a standard
(§4) method of Nippon Kagaku Ryoho Gakkai (Chemical Therapy Academy).

The test system of the next series is Cystococcus neoformans. Description: Minimum inhibitory concentration, agar dilution method, Cystococcus neoformans. In kind it is cell-based. The following applies: Sabouraud's dextrose medium. On the procedure:
as §1, §2, §3, §4
(In general: In agar dilution, organisms are placed on agar that contains the substance at set levels.)

Series [1] concerns Trichophyton mentagrophytes. The series can be described thus: Minimum inhibitory concentration, agar dilution method, Trichophyton mentagrophytes. The following applies: Sabouraud's dextrose medium; for MIC: Trichophyton mentagrophytes. The format is cell-based. The protocol: as §1, §2, §3, §4
A further series has as its system Trichophyton rubrus. The series can be described thus: Minimum inhibitory concentration, agar dilution method, Trichophyton rubrus. The following applies: Sabouraud's dextrose medium; for MIC: Trichophyton. In kind it is cell-based. On the procedure: as §1, §2, §3, §4
Another series in a line: Acute toxicity to mice. The note with it: mouse, in vivo, intravenous administration. On the procedure:
The compound in this invention is low in toxicity. For example, acute toxicities LD50 to mice of the compounds in Examples 1 and 4 to be described later are both more than 100 mg/kg (intravenous administration).

Series [2] is described as follows: Stability in serum (thin layer chromatography and biological verification using Candida albicans). The note with it: left to stand in serum at 37° C. for 4 hours; TLC and biological verification using Candida albicans. The format is in vitro ADME.

Values after ≈ are worked out from the molar mass of the structure shown.

Results on 26 compounds are retold here after patent publication US5093480A, “Azoxy compounds” (Kowa Company, Ltd., priority 1988, dated 1992).

Broadly, the MIC is the lowest concentration that inhibits growth of the organism. Read a low MIC as inhibition by little substance. In general, LD50 refers to the dose at which mortality reaches 50%.

Take `CCCC/C=C/[N+]([O-])=NC(C)C(C)=NOC(=O)c1ccc(Cl)cc1` (stereo not shown) [Example 27, 2-(p-chlorobenzoyloxyimino)-2-deoxo-KA-7367A]: the MIC in the series with Candida albicans was determined as 100 µg/mL (≈ 284 µM); in the series on Cystococcus neoformans, 100 µg/mL (≈ 284 µM); in series [1] it was 12.5 µg/mL (≈ 35.5 µM); in the series on Trichophyton rubrus, 6.25 µg/mL (≈ 17.8 µM).
Turning to `CCCC/C=C/[N+]([O-])=NC(C)C(C)=NNC(=O)c1ccco1` (stereo not shown) [Example 67, 2-(2-furylcarbonylhydrazono)-2-deoxo-KA-7367A], the MIC against Candida albicans was found to be 1.6 µg/mL (≈ 5.22 µM); in the series with Cystococcus neoformans it was 6.25 µg/mL (≈ 20.4 µM); in series [1], 3.1 µg/mL (≈ 10.1 µM); against Trichophyton rubrus it was 3.1 µg/mL (≈ 10.1 µM).
In the case of `CCCC/C=C/[N+]([O-])=NC(C)C(C)=NNC(=O)C(c1ccc(Cl)cc1)c1ccccc1Cl` (stereo not shown) [Example 78, 2-(2,4'-dichlorodiphenylacetylhydrazono)-2-deoxo-KA-7367A], the minimum inhibitory concentration (MIC) against Candida albicans amounted to 0.8 µg/mL (≈ 1.68 µM); with Cystococcus neoformans, 6.25 µg/mL (≈ 13.1 µM); in series [1], 3.1 µg/mL (≈ 6.52 µM); in the series with Trichophyton rubrus, 3.1 µg/mL (≈ 6.52 µM).
On to “2-thenoylhydrazono-2-deoxo-KA-7367A [Example 68]”, for which the “Minimum inhibitory concentration, Candida albicans” value in the series on Candida albicans turned out to be 3.2 µg/mL. Moreover, in the series with Cystococcus neoformans, the “Minimum inhibitory concentration, Cystococcus neoformans” value was found to be 6.25 µg/mL. Further, the “Minimum inhibitory concentration, Trichophyton mentagrophytes” value in series [1] was determined as 6.25 µg/mL. Moreover, the “Minimum inhibitory concentration, Trichophyton rubrus” value in the series on Trichophyton rubrus came out at 6.25 µg/mL.
`CCCC/C=C/[N+]([O-])=NC(C)C(C)=NOCC(=O)O` (stereo not shown) [Example 4, 2-carboxymethoxyimino-2-deoxo-KA-7367A]: the MIC in the series on Candida albicans was 12.5 µg/mL (≈ 46.1 µM); against Cystococcus neoformans it was 25 µg/mL (≈ 92.1 µM); in series [1] it was 12.5 µg/mL (≈ 46.1 µM); in the series with Trichophyton rubrus it was 3.1 µg/mL (≈ 11.4 µM). Moreover, the LD50 in “Acute toxicity to mice” is > 100 mg/kg.
Turning to “2-(2,4-dichlorodiphenylacetylhydrazono)-2-dioxo-KA-7367A [Example 79]”, in the series on Candida albicans, the “Minimum inhibitory concentration, Candida albicans” value was found to be 1.6 µg/mL. Further, the “Minimum inhibitory concentration, Cystococcus neoformans” value in the series on Cystococcus neoformans was 6.25 µg/mL. The “Minimum inhibitory concentration, Trichophyton mentagrophytes” value in series [1] was 3.1 µg/mL. Further, in the series on Trichophyton rubrus, the “Minimum inhibitory concentration, Trichophyton rubrus” value worked out at 1.6 µg/mL.
Regarding `CCCC/C=C/[N+]([O-])=NC(C)C(C)=NOC(C)(C)C(=O)O` (stereo not shown) [Example 5, 2-(1-carboxy-1-ethylmethoxyimino)-2-deoxo-KA-7367A], the minimum inhibitory concentration (MIC) against Candida albicans is 12.5 µg/mL (≈ 41.8 µM); in the series on Cystococcus neoformans, 25 µg/mL (≈ 83.5 µM); in series [1] it was 12.5 µg/mL (≈ 41.8 µM); in the series on Trichophyton rubrus, 3.1 µg/mL (≈ 10.4 µM).
For `CCCC/C=C/[N+]([O-])=NC(C)C(C)=NNC(=O)Cn1ccnc1` (stereo not shown) [Example 47, 2-(1-imidazolylacetylhydrazono)-2-deoxo-KA-7367A], the MIC against Candida albicans is 6.25 µg/mL (≈ 19.5 µM); in the series on Cystococcus neoformans it was 50 µg/mL (≈ 156 µM); in series [1], 25 µg/mL (≈ 78 µM); in the series on Trichophyton rubrus, 12.5 µg/mL (≈ 39 µM).
For the compound `CCCC/C=C/[N+]([O-])=NC(C)C(C)=NO` (stereo not shown) [Example 1, 2-hydroxyimino-2-deoxo-KA-7367A], the MIC was determined as 12.5 µg/mL (≈ 58.6 µM) with Candida albicans, 25 µg/mL (≈ 117 µM) against Cystococcus neoformans, 12.5 µg/mL (≈ 58.6 µM) in series [1] and 3.1 µg/mL (≈ 14.5 µM) with Trichophyton rubrus. Besides, in the series “Acute toxicity to mice”, the LD50 was > 100 mg/kg.
For `CCCC/C=C/[N+]([O-])=NC(C)C(C)=NNC(C)=O` (stereo not shown) [Example 43, 2-acetylhydrazono-2-deoxo-KA-7367A], the MIC in the series on Candida albicans came out at 1.6 µg/mL (≈ 6.29 µM); in the series with Cystococcus neoformans, 3.1 µg/mL (≈ 12.2 µM); in series [1] it was 6.25 µg/mL (≈ 24.6 µM); in the series on Trichophyton rubrus, 3.1 µg/mL (≈ 12.2 µM).
In the case of `CCCC/C=C/[N+]([O-])=NC(C)C(C)=NNC(N)=O` (stereo not shown) [Example 34, 2-semicarbazono-2-deoxo-KA-7367A], the MIC amounted to 3.1 µg/mL (≈ 12.1 µM) in the series on Candida albicans, 3.1 µg/mL (≈ 12.1 µM) against Cystococcus neoformans, 3.1 µg/mL (≈ 12.1 µM) in series [1] and 1.6 µg/mL (≈ 6.27 µM) against Trichophyton rubrus.
As to `CCCC/C=C/[N+]([O-])=NC(C)C(C)=NNC(=O)Cc1c(F)cccc1F` (stereo not shown) [Example 61, 2-[(2,6-difluorophenyl)acetylhydrazono]-2-deoxo-KA-7367A], the MIC with Candida albicans turned out to be 0.8 µg/mL (≈ 2.18 µM); in the series with Cystococcus neoformans, 6.25 µg/mL (≈ 17.1 µM); in series [1] it was 3.1 µg/mL (≈ 8.46 µM); in the series with Trichophyton rubrus, 1.6 µg/mL (≈ 4.37 µM).
For `CCCC/C=C/[N+]([O-])=NC(C)C(C)=NNC(=O)Cc1ccc(Cl)cc1` (stereo not shown) [Example 74, 2-(p-chlorophenylacetylhydrazono)-2-deoxo-KA-7367A], the MIC in the series with Candida albicans came out at 1.6 µg/mL (≈ 4.39 µM); in the series on Cystococcus neoformans it was 6.25 µg/mL (≈ 17.1 µM); in series [1] it was 6.25 µg/mL (≈ 17.1 µM); in the series with Trichophyton rubrus it was 3.1 µg/mL (≈ 8.5 µM).
As for `CCCC/C=C/[N+]([O-])=NC(C)C(C)=NOCCOCC` (stereo not shown) [Example 3, 2-(2-ethoxy-ethoxyimino)-2-dioxo-KA-7367A], the MIC against Candida albicans came out at 25 µg/mL (≈ 87.6 µM); in the series on Cystococcus neoformans, 50 µg/mL (≈ 175 µM); in series [1], 25 µg/mL (≈ 87.6 µM); in the series with Trichophyton rubrus, 6.25 µg/mL (≈ 21.9 µM).
In the case of `CCCC/C=C/[N+]([O-])=NC(C)C(C)=NNC(=O)Cc1ccc(Cl)cc1Cl` (stereo not shown) [Example 49, 2-(2,4-dichlorophenylacetylhydrzono)-2-deoxo-KA-7367A], the MIC with Candida albicans is 1.6 µg/mL (≈ 4.01 µM); against Cystococcus neoformans it was 6.25 µg/mL (≈ 15.7 µM); in series [1] it was 3.1 µg/mL (≈ 7.76 µM); in the series on Trichophyton rubrus it was 1.6 µg/mL (≈ 4.01 µM).
Take `CCCC/C=C/[N+]([O-])=NC(C)C(C)=NNC(=O)c1ccncc1` (stereo not shown) [Example 70, 2-isonicotinoylhydrazono-2-deoxo-KA-7367A]: the MIC against Candida albicans worked out at 25 µg/mL (≈ 78.8 µM); with Cystococcus neoformans, 50 µg/mL (≈ 158 µM); in series [1] it was 25 µg/mL (≈ 78.8 µM); in the series with Trichophyton rubrus it was 12.5 µg/mL (≈ 39.4 µM).
`CCCC/C=C/[N+]([O-])=NC(C)C(C)=NNC(N)=S` (stereo not shown) [Example 35, 2-thiosemicarbazono-2-deoxo-KA-7367A]: the MIC against Candida albicans came out at 3.1 µg/mL (≈ 11.4 µM); in the series with Cystococcus neoformans, 6.25 µg/mL (≈ 23 µM); in series [1], 6.25 µg/mL (≈ 23 µM); with Trichophyton rubrus, 3.1 µg/mL (≈ 11.4 µM).
Consider `CCCC/C=C/[N+]([O-])=NC(C)C(C)=O` (stereo not shown) [KA-7367A], for which the decomposition in serum result in series [2] is “almost decomposed”.
Take `CCCC/C=C/[N+]([O-])=NC(C)C(C)=NOC(=O)c1ccccc1` (stereo not shown) [Example 25, 2-benzoyloxyimino-2-deoxo-KA-7367A]: the MIC in the series with Candida albicans was 50 µg/mL (≈ 158 µM); against Cystococcus neoformans, 50 µg/mL (≈ 158 µM); in series [1], 12.5 µg/mL (≈ 39.4 µM); in the series with Trichophyton rubrus, 3.1 µg/mL (≈ 9.77 µM).
In the case of `CCCC/C=C/[N+]([O-])=NC(C)C(C)=NNC(=O)CN1CCN(C(C)=O)CC1` (stereo not shown) [Example 53, 2-(4-acetylpiperazinyl-acetylhydrazono)-2-deoxo-KA-7367A], the MIC in the series on Candida albicans was 3.1 µg/mL (≈ 8.15 µM); with Cystococcus neoformans, 12.5 µg/mL (≈ 32.9 µM); in series [1], 6.25 µg/mL (≈ 16.4 µM); in the series on Trichophyton rubrus, 3.1 µg/mL (≈ 8.15 µM).
Regarding `CCCC/C=C/[N+]([O-])=NC(C)C(C)=NNC(=O)Cc1cccnc1` (stereo not shown) [Example 48, 2-(3-pyridylacetylhydrazono)-2-deoxo-KA-7367A], the MIC against Candida albicans was determined as 1.6 µg/mL (≈ 4.83 µM); against Cystococcus neoformans, 6.25 µg/mL (≈ 18.9 µM); in series [1], 3.1 µg/mL (≈ 9.35 µM); against Trichophyton rubrus it was 1.6 µg/mL (≈ 4.83 µM).
With `CCCC/C=C/[N+]([O-])=NC(C)C(C)=NNC(=O)Cc1c(OC)cccc1OC` (stereo not shown) [Example 62, 2-[(2,6-dimethoxyphenyl)acetylhydrazono]-2-deoxo-KA-7367A], the MIC is 1.6 µg/mL (≈ 4.1 µM) in the series with Candida albicans, 12.5 µg/mL (≈ 32 µM) with Cystococcus neoformans, 6.25 µg/mL (≈ 16 µM) in series [1] and 3.1 µg/mL (≈ 7.94 µM) with Trichophyton rubrus.
The matching figures for `CCCC/C=C/[N+]([O-])=NC(C)C(C)=NNC(=O)CN1CCN(C(=O)Cc2c(Cl)cccc2Cl)CC1` (stereo not shown) [Example 54, 2-[4-(2,6-dichlorophenylacetyl)-1-piperazinylacetylhydrazino]-2-deoxo-KA-7367A]: 3.1 µg/mL (≈ 5.9 µM), 12.5 µg/mL (≈ 23.8 µM), 6.25 µg/mL (≈ 11.9 µM) and 3.1 µg/mL (≈ 5.9 µM).
For `CCCC/C=C/[N+]([O-])=NC(C)C(C)=NNC(=O)Cc1cccc2ccccc12` (stereo not drawn) [Example 52, 2-(alpha-naphthylacetylhydrazono)-2-deoxo-KA-7367A], in that order: 3.1 µg/mL (≈ 8.15 µM), 12.5 µg/mL (≈ 32.9 µM), 6.25 µg/mL (≈ 16.4 µM) and 3.1 µg/mL (≈ 8.15 µM).
The matching figures for `CCCC/C=C/[N+]([O-])=NC(C)C(C)=NOC(C)=O` (stereo not shown) [Example 24, 2-acetoxyimino-2-deoxo-KA-7367A]: 25 µg/mL (≈ 97.9 µM), 50 µg/mL (≈ 196 µM), 12.5 µg/mL (≈ 49 µM) and 6.25 µg/mL (≈ 24.5 µM).
Turning to `CCCC/C=C/[N+]([O-])=NC(C)C(C)=NNC(=O)c1cccnc1` (stereo not shown) [Example 71, 2-nicotinoylhydrazono-2-deoxo-KA-7367A], the MIC was 6.25 µg/mL (≈ 19.7 µM) in the series with Candida albicans, 12.5 µg/mL (≈ 39.4 µM) in the series on Cystococcus neoformans, 6.25 µg/mL (≈ 19.7 µM) in series [1] and 6.25 µg/mL (≈ 19.7 µM) against Trichophyton rubrus.
